Laboratory results taken from the supplement of paper PMC5908809.

What was measured:
[1] = tested on: NK-92 (IL-2 2.5 ng/mL); experiment: drug sensitivity score (DSS) (DSS units); higher = more sensitive; extreme values may be limits of the assay; details: 72 h
[2] = tested on: normal primary NK cells, pool 1 (3 donors), resting (IL-2 0 ng/mL); experiment: as above; details: 72 h
[3] = tested on: IMC-1 (IL-2 20 ng/mL); experiment: as above; details: 72 h
[4] = tested on: KHYG-1 (IL-2 2.5 ng/mL); experiment: as above; details: 72 h
[5] = tested on: normal primary NK cells, pool 3 (3 donors) (IL-2 2.5 ng/mL); experiment: as above; details: 72 h
[6] = tested on: DERL-7 (IL-2 2.5 ng/mL); experiment: as above; details: 72 h
[7] = tested on: KAI3 (IL-2 2.5 ng/mL); experiment: as above; details: 72 h
[8] = tested on: NK-YS (IL-2 2.5 ng/mL); experiment: as above; details: 72 h
[9] = tested on: normal primary NK cells, pool 2 (3 donors) (IL-2 2.5 ng/mL); experiment: as above; details: 72 h
[10] = tested on: NKL (IL-2 2.5 ng/mL); experiment: as above; details: 72 h
[11] = tested on: YT (IL-2 2.5 ng/mL); experiment: as above; details: 72 h
[12] = tested on: normal primary NK cells, pool 1 (3 donors) (IL-2 2.5 ng/mL); experiment: as above; details: 72 h
[13] = tested on: SNK-6 (IL-2 2.5 ng/mL); experiment: as above; details: 72 h
[14] = tested on: normal NK cells expanded with K562-aAPC; experiment: as above; details: 72 h; IL-2 2.5 ng/mL
Procedure: (§1)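 Drug sensitivity and resistance testing on K562-aAPC-expanded normal NK cells: 5 concentrations (10-fold steps over a 10,000-fold range), 72 h at 37 °C, viability by CellTiter-Glo normalised to DMSO and benzethonium chloride controls; DSS from the fitted curve.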

[15] = tested on: NK-92 (IL-2 2.5 ng/mL); experiment: percent inhibition of viability; higher = more inhibition; details: 72 h
[16] = tested on: normal primary NK cells, pool 1 (3 donors), resting (IL-2 0 ng/mL); experiment: as above; details: 72 h
[17] = tested on: IMC-1 (IL-2 20 ng/mL); experiment: as above; details: 72 h
[18] = tested on: KHYG-1 (IL-2 2.5 ng/mL); experiment: as above; details: 72 h
[19] = tested on: normal primary NK cells, pool 3 (3 donors) (IL-2 2.5 ng/mL); experiment: as above; details: 72 h
[20] = tested on: DERL-7 (IL-2 2.5 ng/mL); experiment: as above; details: 72 h
[21] = tested on: KAI3 (IL-2 2.5 ng/mL); experiment: as above; details: 72 h
[22] = tested on: NK-YS (IL-2 2.5 ng/mL); experiment: as above; details: 72 h
[23] = tested on: normal primary NK cells, pool 2 (3 donors) (IL-2 2.5 ng/mL); experiment: as above; details: 72 h
[24] = tested on: NKL (IL-2 2.5 ng/mL); experiment: as above; details: 72 h
[25] = tested on: YT (IL-2 2.5 ng/mL); experiment: as above; details: 72 h
[26] = tested on: normal primary NK cells, pool 1 (3 donors) (IL-2 2.5 ng/mL); experiment: as above; details: 72 h
[27] = tested on: SNK-6 (IL-2 2.5 ng/mL); experiment: as above; details: 72 h
[28] = tested on: normal NK cells expanded with K562-aAPC; experiment: as above; details: 72 h, IL-2 2.5 ng/mL
Procedure: as §1

Cc1cc(Nc2nc(N[C@@H](C)c3ncc(F)cn3)ncc2Cl)[nH]n1 [AZD1480] (max concentration tested 1000 nM)
Details | drug sensitivity score
[1] | 8.24
[2] | 0
[3] | 3.91
[4] | 17.9
[5] | 6.17
[6] | 13.7
[7] | 17.1
[8] | 7.94
[9] | 7.54
[10] | 14.5
[11] | 5.7
[12] | 8.59
[13] | 12.5
[14] | 12

percent inhibition of viability [%]
Details | 0.1 nM | 1 nM | 10 nM | 100 nM | 1000 nM
[15] | -8.05 | 3.14 | 1.52 | 28.2 | 78
[16] | -5.75 | -9.19 | 6.02 | 2 | 2.57
[17] | -4.11 | -5.28 | -12.7 | -1.83 | 73.8
[18] | 0.27 | 3.46 | 15.9 | 86.6 | 95.6
[19] | -15.9 | -5.65 | -9.13 | 21.8 | 58.1
[20] | 0.17 | 6.33 | 14.9 | 62 | 94.2
[21] | 3.55 | 2.45 | 24.7 | 77 | 87.5
[22] | 0.27 | -0.67 | 8.06 | 35.8 | 65.3
[23] | -8.71 | -7.23 | -6.75 | 36.8 | 58
[24] | -13.4 | -3.23 | 19.8 | 65.5 | 76.2
[25] | 2.34 | -1.75 | 1.84 | 10.8 | 70.7
[26] | -6.31 | -10.2 | 7.91 | 39.2 | 68.6
[27] | -1.78 | 7.1 | 4.31 | 59.5 | 96.2
[28] | -0.54 | 2.03 | 10.3 | 53.7 | 95.5

COc1cc(CCc2cc(NC(=O)c3ccc(N4CC(C)NC(C)C4)cc3)n[nH]2)cc(OC)c1 (stereo not given) [AZD4547] (max concentration tested 1000 nM)
Details | drug sensitivity score
[1] | 0
[2] | 0.81
[3] | 0.05
[4] | 0
[5] | 0
[6] | 0
[7] | 2.12
[8] | 0
[9] | 0
[10] | 4.12
[11] | 1.18
[12] | 3.07
[13] | 1.27
[14] | 0.21

percent inhibition of viability [%]
Details | 0.1 nM | 1 nM | 10 nM | 100 nM | 1000 nM
[15] | -8.61 | -19.7 | -10.4 | 1.68 | 9.5
[16] | -1.26 | 20.1 | 12.4 | 9.93 | 10.7
[17] | -10.2 | -0.55 | 2.58 | 3.59 | 11.7
[18] | -1.35 | -9.6 | -4.7 | -0.32 | 6.6
[19] | -2.75 | 5.35 | 5.93 | -3.36 | 6.54
[20] | 0.65 | 12 | 4.33 | 3.09 | 5.77
[21] | 0.83 | 0.57 | 5.8 | 15.9 | 18.7
[22] | -1.26 | -3.32 | -4.3 | -2.46 | 7.41
[23] | -16.2 | 4.82 | 5.78 | 1.94 | 4.66
[24] | -6.59 | -3.17 | 6.86 | 22.1 | 18.6
[25] | -1.63 | -5.24 | 0.65 | 14.1 | 7.45
[26] | 0.51 | 14 | 13.1 | 8.85 | 9.5
[27] | -8.3 | -5.78 | 6.93 | -1.06 | 30.7
[28] | -0.43 | -4.83 | -0.59 | 0.99 | 13.7

NC(=O)Nc1cc(-c2cccc(F)c2)sc1C(=O)N[C@H]1CCCNC1 [AZD7762] (max concentration tested 1000 nM)
Details | drug sensitivity score
[1] | 10.2
[2] | 2.58
[3] | 4.99
[4] | 18.4
[5] | 0.69
[6] | 10.7
[7] | 18
[8] | 10.1
[9] | 1.59
[10] | 14.9
[11] | 9.64
[12] | 3.1
[13] | 10
[14] | 9.03

percent inhibition of viability [%]
Details | 0.1 nM | 1 nM | 10 nM | 100 nM | 1000 nM
[15] | -12.3 | 2.34 | -2.59 | 33.4 | 104
[16] | -1.65 | 27.9 | 17.6 | 7.65 | 15
[17] | -6.23 | -1.75 | -2.17 | -7.04 | 99
[18] | -7.54 | -7.13 | 3.29 | 100 | 106
[19] | -4.39 | 6.88 | -1.78 | -16.7 | 27.9
[20] | 0.34 | 1.83 | -2.38 | 40.2 | 96.8
[21] | 3.25 | 1.46 | 16.1 | 87.4 | 101
[22] | -4.78 | -5.3 | -1.14 | 32.8 | 98.5
[23] | -6.25 | 11.4 | -7.48 | -6.09 | 39.8
[24] | -9.43 | -12.1 | 12 | 71.8 | 94.4
[25] | -5.67 | -1.28 | 2.8 | 28.1 | 99.1
[26] | -5.93 | 12.7 | 4.94 | 7.28 | 38.7
[27] | 1.39 | -7.11 | 6.7 | 38.1 | 98.3
[28] | -1.82 | -2.38 | -5.7 | 40.7 | 73.3

N#Cc1ccc2[nH]c(O)c(-c3ccc(CN4CCOCC4)cn3)c2c1 [AZD-1080] (max concentration tested 10000 nM)
Details | drug sensitivity score
[1] | 0
[2] | 0
[3] | 3.76
[4] | 0.09
[5] | 0.08
[6] | 4.59
[7] | 0.09
[8] | 0.06
[9] | 0
[10] | 0.66
[11] | 0.3
[12] | 0
[13] | 0
[14] | 0.28

percent inhibition of viability [%]
Details | 1 nM | 10 nM | 100 nM | 1000 nM | 10000 nM
[15] | -5.77 | -9.41 | -10.5 | -11.2 | -14.5
[16] | -0.71 | 6.84 | 6.15 | -35.3 | -109
[17] | -6.19 | -4.98 | -2.55 | -0.22 | 68.7
[18] | -9.77 | -11.1 | -7.95 | -10.2 | 15.1
[19] | 6.51 | 4.2 | 7.89 | -9.63 | 14.5
[20] | 0.69 | -2.27 | -0.41 | -4.2 | 88.5
[21] | -2.28 | -5.79 | -9.97 | -21.1 | 16.1
[22] | -7.92 | -9.02 | -9.19 | -12.2 | 14.6
[23] | 3.02 | 1.99 | -1.33 | -5.26 | 2.97
[24] | -2.17 | -4.57 | -11.4 | -10.8 | 26.2
[25] | -4.13 | -5.06 | -2.61 | -7.8 | 19
[26] | -13.1 | 1.31 | -13.3 | -7.59 | -4.41
[27] | -12 | -18.9 | -7.02 | -36.2 | -41.6
[28] | -8.89 | -11.1 | -9.66 | -4.69 | 17.9

Cc1cc([C@@H](C)Nc2ccccc2C(=O)O)c2nc(N3CCOCC3)cc(=O)n2c1 [AZD-6482] (max concentration tested 2500 nM)
Details | drug sensitivity score
[1] | 3.55
[2] | 0.12
[3] | 0
[4] | 0
[5] | 0.05
[6] | 0.68
[7] | 0
[8] | 0
[9] | 1.26
[10] | 0
[11] | 2.58
[12] | 0.92
[13] | 0.11
[14] | 1.31

percent inhibition of viability [%]
Details | 0.25 nM | 2.5 nM | 25 nM | 250 nM | 2500 nM
[15] | -8.01 | -6.53 | 4.21 | 8.86 | 41.9
[16] | 1.92 | -14.9 | -3.13 | -1.54 | 14
[17] | 1.39 | 3.21 | 2.72 | 3.93 | -5.9
[18] | -0.9 | 1.99 | 2.56 | 6.11 | 8.71
[19] | -9.49 | -6.79 | 13.8 | -3.71 | 13
[20] | -4.2 | -4.4 | 3.19 | 2.6 | 17
[21] | -5.85 | -0.65 | -3.24 | 1.82 | 7.93
[22] | -5.33 | -1.23 | -3.08 | 0.81 | 7.94
[23] | -5.18 | 0.99 | 18.9 | 5.04 | 17.1
[24] | -13.3 | 2.45 | -1.09 | 6.43 | -3.2
[25] | 2.09 | 3.67 | 7.43 | 14.2 | 28.4
[26] | -3.99 | -0.34 | 5.64 | 2.68 | 19.6
[27] | 17.7 | 22.5 | 28.9 | 18.4 | 9.67
[28] | -0.89 | -3.51 | 0.58 | 12.4 | 16.6
